In patent EP4603105A1, “PHARMACEUTICAL COMPOSITION CONTAINING CYCLIC COMPOUND HAVING SELECTIVE KRAS INHIBITORY EFFECT AGAINST HRAS AND NRAS” (CHUGAI SEIYAKU KABUSHIKI KAISHA, priority 2022, dated 2024):
Where two headings read alike, the source gives them in different places.

How the values were obtained:
[1] = target: GDP-bound KRAS wild-type protein (Homo sapiens, UniProt P01116); test: Binding to KRAS by surface plasmon resonance (SPR), dissociation constant KD
Method in brief: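 Affinity is measured by surface plasmon resonance at 30°C against captured, GDP-loaded RAS carrying a biotinylated Avi tag. Compounds are titrated by single-cycle kinetics, and KD comes from a 1:1 fit.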

HRAS wild-type protein = HRAS wild-type protein (Homo sapiens, UniProt P01112); test: Binding to HRAS by surface plasmon resonance (SPR), KD and KD ratio to KRAS
Method in brief: (§1)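 Measured at 30°C: SPR with GDP-loaded, E. coli-expressed biotin-Avi RAS captured (~100–300 RU), ascending 75 s compound injections, HBS pH 7.4 with GDP, MgCl2, 4% DMSO. KD from 1:1 fit.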

[2] = test system: human lung cancer strain NCI-H441; test: NCI-H441 cell proliferation inhibitory activity (CellTiter-Glo, 4 days); format: cell-based; settings: read-out: NCl-H441 IC50
Method in brief: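 Signal came from […] measured per well once the reagent was added. Beforehand, cells were cultured at 37°C and 5% carbon dioxide on a compound series serially diluted in dimethyl sulfoxide.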

[3] = target: GDP-bound NRAS wild-type protein (Homo sapiens, UniProt P01111); test: Binding to NRAS by surface plasmon resonance (SPR), KD and KD ratio to KRAS
Method in brief: as §1

[4] = Single Cycle Kinetics, 1:1 binding model
[5] = ratio of KD with respect to HRAS wild-type protein to KD with respect to KRAS
[6] = 50% proliferation inhibitory concentration, four days
[7] = ratio of KD with respect to GDP-bound NRAS wild-type protein to KD with respect to KRAS
[8] = ratio of KD for HRAS wild-type protein to KD for KRAS
[9] = ratio of KD for GDP-bound NRAS wild-type protein to KD for KRAS

HRAS wild-type protein, sequence (P01112 whole entry): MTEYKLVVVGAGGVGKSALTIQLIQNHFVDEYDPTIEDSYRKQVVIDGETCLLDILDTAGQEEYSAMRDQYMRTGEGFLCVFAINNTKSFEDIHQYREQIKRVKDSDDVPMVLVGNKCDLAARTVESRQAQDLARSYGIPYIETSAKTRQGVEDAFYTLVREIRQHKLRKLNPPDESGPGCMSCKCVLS
GDP-bound NRAS wild-type protein, sequence (P01111 whole entry): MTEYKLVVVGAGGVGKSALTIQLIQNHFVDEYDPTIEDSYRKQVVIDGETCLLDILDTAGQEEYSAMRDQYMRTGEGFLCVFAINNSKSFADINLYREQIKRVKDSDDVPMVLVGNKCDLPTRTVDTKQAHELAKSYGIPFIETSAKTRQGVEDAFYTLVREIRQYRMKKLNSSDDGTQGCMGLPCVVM
GDP-bound KRAS wild-type protein, sequence (P01116 1-188 isoform P01116-2): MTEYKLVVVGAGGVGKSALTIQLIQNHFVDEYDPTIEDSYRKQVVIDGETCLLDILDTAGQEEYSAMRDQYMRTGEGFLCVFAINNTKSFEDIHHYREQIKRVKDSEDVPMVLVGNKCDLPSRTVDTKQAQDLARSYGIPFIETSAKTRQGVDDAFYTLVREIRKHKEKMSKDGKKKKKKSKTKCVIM

| Structure (SMILES) | Kd [1, 4] [nM] | IC50 [2, 6] [nM] | Kd ([1]; Single Cycle Kinetics) [nM] | IC50 ([2]; NCI-H441 cells, 4 days) [nM] | Kd ([1]; 1:1 binding model) [nM] | HRAS /KRAS (HRAS wild-type protein; [5]) | NRAS /KRAS [3, 7] | HRAS /KRAS (HRAS wild-type protein; [8]) | NRAS /KRAS [3, 9] |
| --- | --- | --- | --- | --- | --- | --- | --- | --- | --- |
| CCCO[C@@H]1C[C@H]2C(=O)NC3(CC(C)(C)C3)C(=O)N(C)[C@@H](C3CCCC3)C(=O)N(C)[C@H](C(=O)N(C)CC)CC(=O)N(C)[C@@H](COCC)C(=O)N[C@@H]([C@@H](C)CC)C(=O)N(C3CC3)CC(=O)N(C)[C@H]3C/C=C\CCN(C3=O)[C@@H](Cc3ccc(C)cc3)C(=O)N(C)CC(=O)N[C@@H](CCc3ccc(C(F)(F)F)c(OC)c3)C(=O)N2C1 [PP3466] |  |  | 0.97 | 39.8 |  |  |  | B (a compound having 3 or more and less than 10 is denoted as B) | A (a compound having 10 or more and less than 20 is denoted as A) |
| CCCOC[C@H]1C(=O)N[C@@H]([C@@H](C)CC)C(=O)N(C)CC(=O)N(C)[C@H]2C/C=C\CCN(C2=O)[C@@H](CC2CCC(F)(F)CC2)C(=O)N(C)CC(=O)N[C@@H](CCc2ccc(C(F)(F)F)c(OC)c2)C(=O)N2C[C@@H](C)C[C@H]2C(=O)NC2(CC(C)(C)C2)C(=O)N(C)[C@@H](C(CC)CC)C(=O)N(C)[C@H](C(=O)N(C)C)CC(=O)N1C [PP2483] |  |  |  | 195 | 1.6 |  |  | A (a compound having 10 or more and less than 20 is denoted as A) | A (a compound having 10 or more and less than 20 is denoted as A) |
| CCC[C@H]1C(=O)N[C@@H]([C@@H](C)CC)C(=O)N(C)CC(=O)N(C)[C@H]2C/C=C\CCN(C2=O)[C@@H](Cc2ccc(C)cc2)C(=O)N(C)CC(=O)N[C@@H](CCc2ccc(C(F)(F)F)c(OC)c2)C(=O)N2CC[C@H](OC)[C@H]2C(=O)N(C)C2(CCC2)C(=O)N(C)[C@@H](C2CCCC2)C(=O)N(C)[C@H](C(=O)N(C)C)CC(=O)N1C [PP3249] |  |  | 0.059 | 4.2 |  |  |  | B (a compound having 3 or more and less than 10 is denoted as B) | A (a compound having 10 or more and less than 20 is denoted as A) |
| CCC[C@H]1C(=O)N[C@@H]([C@@H](C)CC)C(=O)N2CC[C@H]2C(=O)N(C)[C@H]2C/C(F)=C\CCN(C2=O)[C@@H](Cc2ccc(C)cc2)C(=O)N(C)CC(=O)N[C@@H](CCc2ccc(C(F)(F)F)c(OC)c2)C(=O)N2C[C@H](OCC)C[C@H]2C(=O)N(C)C2(CCC2)C(=O)N(C)[C@@H](C2CCCC2)C(=O)N(C)[C@H](C(=O)N(C)C)CC(=O)N1C [PP3530] |  |  | 0.14 | 6.8 |  |  |  | B (a compound having 3 or more and less than 10 is denoted as B) | B (a compound having 3 or more and less than 10 is denoted as B) |
| C=C(C)C[C@H]1C(=O)N(C)[C@H](C(=O)N(C)C)CC(=O)N(C)[C@@H](CCC)C(=O)N[C@@H]([C@@H](C)CC)C(=O)N2CCC[C@H]2C(=O)N(C)[C@H]2C/C=C\CCN(C2=O)[C@@H](Cc2ccc(C(F)(F)F)cc2)C(=O)N(C)CC(=O)N[C@@H](CCc2cc(F)c(C(F)(F)F)c(F)c2)C(=O)N2C[C@H](OCC)C[C@H]2C(=O)N(C)C2(CCC2)C(=O)N1C [PP3339] |  |  | 3.6 | 104 |  |  |  | A (a compound having 10 or more and less than 20 is denoted as A) | A (a compound having 10 or more and less than 20 is denoted as A) |
| CCO[C@@H]1C[C@H]2C(=O)NC3(CCC3)C(=O)N(C)[C@@H](C(CC)CC)C(=O)N(C)[C@H](C(=O)N(C)C)CC(=O)N(C)[C@@H](CC3CC3)C(=O)N[C@@H]([C@@H](C)CC)C(=O)N(C)CC(=O)N(C)[C@H]3C/C=C\CCN(C3=O)[C@@H](Cc3ccc(C(F)(F)F)cc3)C(=O)N(C)CC(=O)N[C@@H](CCc3ccc(C(F)(F)F)c(OC)c3)C(=O)N2C1 [PP1211] | 0.27 | 26.8 |  |  |  | B (a compound having 3 or more and less than 10 is denoted as B) | A (a compound having 10 or more and less than 20 is denoted as A) |  |  |
| CCC[C@H]1C(=O)N[C@@H]([C@@H](C)CC)C(=O)N(C)CC(=O)N(C)[C@H]2C/C=C\CCN(C2=O)[C@@H](Cc2ccc(C(F)(F)F)cc2)C(=O)N(C)CC(=O)N[C@@H](CCc2cc(F)c(Cl)c(F)c2)C(=O)N2C[C@H](OCC)C[C@H]2C(=O)NC2(CCC2)C(=O)N(C)[C@@H](C(CC)CC)C(=O)N(C)[C@H](C(=O)N(C)C)CC(=O)N1C [PP1231] | 0.56 | 23.1 |  |  |  | A (a compound having 10 or more and less than 20 is denoted as A) | AA (a compound having 20 or more is denoted as AA) |  |  |

The next lines start with results.

| Kd [1, 4] [nM] | IC50 [2, 6] [nM] | Kd ([1]; Single Cycle Kinetics) [nM] | IC50 ([2]; NCI-H441 cells, 4 days) [nM] | Kd ([1]; 1:1 binding model) [nM] | Structure (SMILES) | HRAS /KRAS (HRAS wild-type protein; [5]) | NRAS /KRAS [3, 7] | HRAS /KRAS (HRAS wild-type protein; [8]) | NRAS /KRAS [3, 9] |
| --- | --- | --- | --- | --- | --- | --- | --- | --- | --- |
| 0.16 | 10.2 |  |  |  | CCO[C@@H]1C[C@H]2C(=O)NC3(CCC3)C(=O)N(C)[C@@H](C3CCCC3)C(=O)N(C)[C@H](C(=O)N3CCOCC3)CC(=O)N(C)[C@@H](CC(C)C)C(=O)N[C@@H]([C@@H](C)CC)C(=O)N3CC[C@H]3C(=O)N(C)[C@H]3C[C@@H](C)[C@@H](C)CN(C3=O)[C@@H](Cc3ccc(C(F)(F)F)cc3)C(=O)N(C)CC(=O)N[C@@H](CCc3cc(F)c(C(F)(F)F)c(F)c3)C(=O)N2C1 [PP1355] | B (a compound having 3 or more and less than 10 is denoted as B) | A (a compound having 10 or more and less than 20 is denoted as A) |  |  |
|  |  |  | 109 | 2 | C#CCN1CC(=O)N(C)[C@H]2C/C=C\CCN(C2=O)[C@@H](Cc2ccc(C)cc2)C(=O)N(C)CC(=O)N[C@@H](CCc2cc(F)c(C(F)(F)F)c(F)c2)C(=O)N2C[C@H](OCC)C[C@H]2C(=O)NC2(CC(C)(C)C2)C(=O)N(C)[C@@H](C2CCCC2)C(=O)N(C)[C@H](C(=O)N(C)C)CC(=O)N(C)[C@@H](CCC)C(=O)N[C@@H](CC(C)C)C1=O [PP2512] |  |  | A (a compound having 10 or more and less than 20 is denoted as A) | A (a compound having 10 or more and less than 20 is denoted as A) |
| 0.22 | 14.1 |  |  |  | CCO[C@@H]1C[C@H]2C(=O)NC3(CCC3)C(=O)N(C)[C@@H](C3CCCC3)C(=O)N(C)[C@H](C(=O)N3CCOCC3)CC(=O)N(C)[C@@H](CC3CCC3)C(=O)N[C@@H]([C@@H](C)CC)C(=O)N(C)CC(=O)N(C)[C@H]3C/C=C\CCN(C3=O)[C@@H](Cc3ccc(C(F)(F)F)cc3)C(=O)N(C)CC(=O)N[C@@H](CCc3cc(F)c(C(F)(F)F)c(F)c3)C(=O)N2C1 [PP1422] | A (a compound having 10 or more and less than 20 is denoted as A) | AA (a compound having 20 or more is denoted as AA) |  |  |
|  |  | 0.82 | 22.7 |  | CCC[C@H]1C(=O)N[C@@H]([C@@H](C)CC)C(=O)N2CCCC[C@H]2C(=O)N(C)[C@H]2C/C=C\CCN(C2=O)[C@@H](Cc2ccc(C(F)(F)F)cc2)C(=O)N(C)CC(=O)N[C@@H](CCc2cc(F)c(C(F)(F)F)c(F)c2)C(=O)N2C[C@H](OCC)C[C@H]2C(=O)N(C)C2(CCC2)C(=O)N(C)[C@@H](C2CCCC2)C(=O)N(C)[C@H](C(=O)N(C)C)CC(=O)N1C [PP3271] |  |  | B (a compound having 3 or more and less than 10 is denoted as B) | A (a compound having 10 or more and less than 20 is denoted as A) |
| 0.056 | 13 |  |  |  | CCO[C@@H]1C[C@H]2C(=O)NC3(CCC3)C(=O)N(C)[C@@H](C3CCCC3)C(=O)N(C)[C@H](C(=O)N(C)C)CC(=O)N(C)[C@@H](CC(F)F)C(=O)N[C@@H]([C@@H](C)CC)C(=O)N(C)CC(=O)N(C)[C@H]3CCCCCN(C3=O)[C@@H](Cc3ccc(F)cc3)C(=O)N(C)CC(=O)N[C@@H](CCc3cc(F)c(C(F)(F)F)c(F)c3)C(=O)N2C1 [PP1191] | B (a compound having 3 or more and less than 10 is denoted as B) | A (a compound having 10 or more and less than 20 is denoted as A) |  |  |
|  |  |  | 6.6 | 0.12 | CCOC[C@H]1C(=O)N[C@@H]([C@@H](C)CC)C(=O)N(C)CC(=O)N(C)[C@H]2C/C=C\CCN(C2=O)[C@@H](Cc2ccc(C)cc2)C(=O)N(C)CC(=O)N[C@@H](CCc2cc(F)c(C(F)(F)F)c(F)c2)C(=O)N2C[C@@H](C)C[C@H]2C(=O)NC2(CC(C)(C)C2)C(=O)N(C)[C@@H](C2CCCC2)C(=O)N(C)[C@H](C(=O)N(C)C)CC(=O)N1C [PP2439] |  |  | A (a compound having 10 or more and less than 20 is denoted as A) | A (a compound having 10 or more and less than 20 is denoted as A) |
| 0.26 | 27.8 |  |  |  | CCO[C@@H]1C[C@H]2C(=O)NC3(CCC3)C(=O)N(C)[C@@H](C3CCCC3)C(=O)N(C)[C@H](C(=O)N3CCOCC3)CC(=O)N(C)[C@@H](Cc3cccs3)C(=O)N[C@@H]([C@@H](C)CC)C(=O)N(C)CC(=O)N(C)[C@H]3CCCCCN(C3=O)[C@@H](Cc3ccc(F)cc3)C(=O)N(C)CC(=O)N[C@@H](CCc3cc(F)c(C(F)(F)F)c(F)c3)C(=O)N2C1 [PP1183] | B (a compound having 3 or more and less than 10 is denoted as B) | B (a compound having 3 or more and less than 10 is denoted as B) |  |  |
|  |  |  | 124 | 3.4 | CCC[C@H]1C(=O)N[C@@H](CC(C)C)C(=O)N(C2CC2)CC(=O)N(C)[C@H]2C/C=C\CCN(C2=O)[C@@H](Cc2ccc(C)cc2)C(=O)N(C)CC(=O)N[C@@H](CCc2cc(F)c(C(F)(F)F)c(F)c2)C(=O)N2C[C@H](OCC)C[C@H]2C(=O)NC2(CC(C)(C)C2)C(=O)N(C)[C@@H](C2CCCC2)C(=O)N(C)[C@H](C(=O)N(C)C)CC(=O)N1C [PP2508] |  |  | B (a compound having 3 or more and less than 10 is denoted as B) | A (a compound having 10 or more and less than 20 is denoted as A) |
